Results: patent publication US9815851B2, “Pyrrolo carboxamides as modulators of orphan nuclear receptor RAR-related orphan receptor-gamma (RORγ, NR1F3) activity and for the treatment of chronic inflammatory and autoimmune diseases” (PHENEX PHARMACEUTICALS AG, priority 2011, dated 2017)
Read-outs that look alike come from different tables or passages of the source.

Tests used:
[1] = target: T1, RORγ ligand binding domain (LBD) (Homo sapiens, UniProt P51449); assay: TR-FRET Activity Assay (ligand sensing, RORγ-LBD / coactivator peptide interaction, LANCE); assay type: biochemical
T1 construct: made in house; host or cells: E. coli BL-21 (BL3), vector pDEST15
T1 sequence (P51449 269-508 limits assumed): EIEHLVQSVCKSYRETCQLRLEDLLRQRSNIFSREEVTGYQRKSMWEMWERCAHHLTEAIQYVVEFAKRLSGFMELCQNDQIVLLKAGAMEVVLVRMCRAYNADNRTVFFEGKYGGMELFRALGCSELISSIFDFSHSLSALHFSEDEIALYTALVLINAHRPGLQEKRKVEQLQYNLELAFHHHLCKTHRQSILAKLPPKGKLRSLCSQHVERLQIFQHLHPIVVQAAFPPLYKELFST

RORγ = target: T2, RORγ (UniProt P51449); assay: RORγ Gal4 Reporter Gene Assay in 293T cells (firefly and renilla luciferase); assay type: cell-based, human
T2 sequence (P51449 1-518): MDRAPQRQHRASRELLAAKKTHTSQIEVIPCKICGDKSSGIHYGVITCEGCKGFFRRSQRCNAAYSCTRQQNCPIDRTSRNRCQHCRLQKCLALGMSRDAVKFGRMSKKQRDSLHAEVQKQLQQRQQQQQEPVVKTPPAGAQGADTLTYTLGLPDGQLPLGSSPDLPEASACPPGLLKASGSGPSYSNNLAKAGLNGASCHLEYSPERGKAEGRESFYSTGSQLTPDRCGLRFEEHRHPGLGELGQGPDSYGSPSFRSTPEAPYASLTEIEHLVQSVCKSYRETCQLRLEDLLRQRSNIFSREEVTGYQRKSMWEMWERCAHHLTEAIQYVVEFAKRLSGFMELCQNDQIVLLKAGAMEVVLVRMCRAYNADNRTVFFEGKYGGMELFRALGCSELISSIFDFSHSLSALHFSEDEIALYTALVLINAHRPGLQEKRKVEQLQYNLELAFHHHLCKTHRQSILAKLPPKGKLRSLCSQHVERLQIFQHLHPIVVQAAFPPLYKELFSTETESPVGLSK

[2] = first value of the cell FRET/FF/REN, TR-FRET activity assay, read-out: pIC50 (FRET) (converted)
[3] = second value of the cell, Gal4 reporter gene assay in 293T cells, firefly luciferase
[4] = third value of the cell, Gal4 reporter gene assay in 293T cells, renilla normalised luciferase

SMILES: Cc1c(C(=O)NC2COC2)cc(-c2ccc(C(=O)NC(C)(C)C)c(C(C)(C)C)c2)n1CC1CCCCC1 [1/30]
- IC50 [1, 2]: 3980 nM
- pIC50 (FF) (RORγ; [3]): 6.4
- pIC50 (REN) (RORγ; [4]): 6.2

SMILES: Cc1c(C(=O)NCC(C)(C)C(=O)O)cc(-c2cc(C(=O)NC(C)(C)C)cc(C3(C)CC3)c2)n1CC1CCCCC1 [17/338]
- IC50 [1, 2]: 3160 nM
- pIC50 (FF) (RORγ; [3]): 7.2
- pIC50 (REN) (RORγ; [4]): 7.2

SMILES: Cc1c(C(=O)N2CC(O)C2)cc(-c2ccc(S(=O)(=O)NC(C)(C)C)c(C(C)(C)C)c2)n1CC1CCCCC1 [17/94]
- IC50 [1, 2]: 1260 nM
- pIC50 (FF) (RORγ; [3]): 6.8
- pIC50 (REN) (RORγ; [4]): 6.7

SMILES: Cc1c(C(=O)NC2COC2)cc(-c2cnc(OCC(C)(C)C)c(C(F)(F)F)c2)n1CC1CCCCC1 [9/13]
- IC50 [1, 2]: 1000 nM
- pIC50 (FF) (RORγ; [3]): 6.0
- pIC50 (REN) (RORγ; [4]): 6.1

SMILES: Cc1c(S(=O)(=O)NC(C)(C)C)ccc(-c2cc(C(=O)N[C@H]3C[C@H](C(=O)O)C3)c(C)n2CC2CCCCC2)c1Cl [17/275]
- IC50 [1, 2]: 631 nM
- pIC50 (FF) (RORγ; [3]): 7.0
- pIC50 (REN) (RORγ; [4]): 7.0

SMILES: Cc1c(C(=O)NC2CCOCC2)cc(-c2ccc(S(=O)(=O)NC(C)(C)C)c(C(F)(F)F)c2)n1CC1CCC(F)(F)CC1 [17/256]
- IC50 [1, 2]: 631 nM
- pIC50 (FF) (RORγ; [3]): 6.8
- pIC50 (REN) (RORγ; [4]): 7.0

SMILES: Cc1c(C(=O)N[C@H]2C[C@H](C(=O)O)C2)cc(-c2cc(C(=O)NC(C)(C)C)cc(C3(C)CC3)c2)n1CC1CCCCC1 [17/339]
- IC50 [1, 2]: 1260 nM
- pIC50 (FF) (RORγ; [3]): 7.6
- pIC50 (REN) (RORγ; [4]): 7.7

SMILES: COC1(c2cc(-c3cc(C(=O)NC4CCOCC4)c(C)n3CC3CCCCC3)ccc2S(=O)(=O)NC(C)(C)C)CC1 [17/164]
- IC50 [1, 2]: 1260 nM
- pIC50 (FF) (RORγ; [3]): 6.4
- pIC50 (REN) (RORγ; [4]): 6.5

SMILES: Cc1c(C(=O)NC2CCOCC2)cc(-c2ccc(S(N)(=O)=O)c(C(F)(F)F)c2)n1CC1CCCCC1 [Example 19, 1-(Cyclohexylmethyl)-2-methyl-5-(4-sulfamoyl-3-(trifluoromethyl)phenyl)-N-(tetrahydro-2H-pyran-4-yl)-1H-pyrrole-3-carboxamide]
- IC50 [1, 2]: 12600 nM
- pIC50 (FF) (RORγ; [3]): 6.6
- pIC50 (REN) (RORγ; [4]): 6.4

SMILES: Cc1c(C(=O)NCCS(N)(=O)=O)cc(-c2cc(C(C)(C)C)cc(C(C)(C)C)c2)n1CC1CCCCC1 [1/9]
- IC50 [1]: 316 nM
- pIC50 (FF) (RORγ): 6.5/6.6/6.7
- pIC50 (REN) (RORγ): 6.5/6.6/6.7

SMILES: Cc1c(C(=O)NCC(C)(C)C(N)=O)cc(-c2ccc(S(=O)(=O)NC(C)(C)C)c(C(C)(C)C)c2)n1CC1CCCCC1 [1/125]
- IC50 [1, 2]: 794 nM
- pIC50 (FF) (RORγ; [3]): 7.4
- pIC50 (REN) (RORγ; [4]): 7.4

SMILES: Cc1c(C(=O)NC2COC2)cc(-c2cc(C(C)(C)C)cc(C(C)(C)C)c2)n1S(=O)(=O)N1CCCCC1 [Example 7, 5-(3,5-Di-tert-butylphenyl)-2-methyl-N-(oxetan-3-yl)-1-(piperidin-1-ylsulfonyl)-1H-pyrrole-3-carboxamide]
- IC50 [1, 2]: 316 nM
- pIC50 (FF) (RORγ; [3]): 6.8
- pIC50 (REN) (RORγ; [4]): 6.9

SMILES: Cc1c(C(=O)N[C@H]2C[C@H](C(=O)O)C2)cc(-c2cc(Cl)cc(C(=O)NC(C)(C)C)c2)n1CC1CCCCC1 [17/298]
- IC50 [1, 2]: 2510 nM
- pIC50 (FF) (RORγ; [3]): 5.9
- pIC50 (REN) (RORγ; [4]): 6.0

SMILES: Cc1c(C(=O)NC2CCOCC2)cc(-c2cnc(S(=O)(=O)NC(C)(C)C)c(C(F)(F)F)c2)n1CC1CCCCC1 [17/190]
- IC50 [1, 2]: 1580 nM
- pIC50 (FF) (RORγ; [3]): 6.5
- pIC50 (REN) (RORγ; [4]): 6.6

SMILES: Cc1c(C(=O)NCC(C)(C)O)cc(-c2ccc(S(=O)(=O)NC(C)(C)C)c3c(F)cccc23)n1CC1CCCCC1 [17/365]
- IC50 [1, 2]: 1260 nM
- pIC50 (FF) (RORγ; [3]): 7.0
- pIC50 (REN) (RORγ; [4]): 7.0

SMILES: Cc1c(C(=O)NC2CCOCC2)cc(-c2ccc(C(NC(C)(C)C)C(F)(F)F)c(C(F)(F)F)c2)n1CC1CCCCC1 (stereo not drawn) [Example 25]
- IC50 [1, 2]: 1580 nM
- pIC50 (FF) (RORγ; [3]): 6.3
- pIC50 (REN) (RORγ; [4]): 6.2

SMILES: Cc1c(C(=O)NC2COC2)cc(-c2cc(C(C)(C)C)cc(C(C)(C)CF)c2)n1CC1CCCCC1 [17/42]
- IC50 [1]: 2000 nM
- pIC50 (FF) (RORγ): 5.7/7.5/7.6
- pIC50 (REN) (RORγ): 5.7/7.5/7.6

SMILES: Cc1c(C(=O)NCC2(C)COC2)cc(-c2ccc(S(=O)(=O)NC(C)(C)C)c(C(C)(C)C)c2)n1CC1CCCCC1 [1/127]
- IC50 [1]: 501 nM
- pIC50 (FF) (RORγ): 6.3/7.5/7.4
- pIC50 (REN) (RORγ): 6.3/7.5/7.4

SMILES: Cc1c(C(=O)NCC(C)(C)C(N)=O)cc(-c2cc(C(C)(C)C)c3c(c2)C2(CCO3)CC2)n1CC1CCCCC1 [1/98]
- IC50 [1, 2]: 631 nM
- pIC50 (FF) (RORγ; [3]): 7.3
- pIC50 (REN) (RORγ; [4]): 7.3

SMILES: Cc1c(C(=O)NCC(C)(C)O)cc(-c2cc(OC(F)(F)F)cc(C(=O)NC(C)(C)C)c2)n1CC1CCCCC1 [17/349]
- IC50 [1, 2]: 631 nM
- pIC50 (FF) (RORγ; [3]): 6.8
- pIC50 (REN) (RORγ; [4]): 6.8

SMILES: Cc1c(C(=O)NCCC(C)(C)C(=O)O)cc(-c2ccc(-c3ccnn3C(C)C)c(C(C)(C)C)c2)n1CC1CCCCC1 [26/6]
- IC50 [1, 2]: 398 nM
- pIC50 (FF) (RORγ; [3]): 7.7
- pIC50 (REN) (RORγ; [4]): 7.9

SMILES: CCCNS(=O)(=O)c1ccc(-c2cc(C(=O)NC3CCOCC3)c(C)n2CC2CCCCC2)cc1C(F)(F)F [17/111]
- IC50 [1, 2]: 316 nM
- pIC50 (FF) (RORγ; [3]): 7.2
- pIC50 (REN) (RORγ; [4]): 7.3

SMILES: Cc1c(C(=O)N2CCC(C)(C(=O)O)CC2)cc(-c2ccc(S(=O)(=O)NC(C)(C)C)c(C(F)(F)F)c2)n1CC1CCCCC1 [17/224]
- IC50 [1, 2]: 794 nM
- pIC50 (FF) (RORγ; [3]): 7.1
- pIC50 (REN) (RORγ; [4]): 7.2

SMILES: Cc1c(-c2cc(C(=O)N[C@H]3C[C@H](C(=O)O)C3)c(C)n2CC2CCCCC2)ccc(S(=O)(=O)NC(C)(C)C)c1C [17/272]
- IC50 [1, 2]: 501 nM
- pIC50 (FF) (RORγ; [3]): 6.8
- pIC50 (REN) (RORγ; [4]): 6.9

SMILES: Cc1c(C(=O)N[C@H]2C[C@H](C(=O)O)C2)cc(-c2ccc(S(=O)(=O)NC(C)(C)C)c3c(F)cccc23)n1CC1CCCCC1 [17/364]
- IC50 [1, 2]: 1000 nM
- pIC50 (FF) (RORγ; [3]): 6.9
- pIC50 (REN) (RORγ; [4]): 7.0

SMILES: Cc1c(C(=O)N2CC(C(C)(C)C(=O)O)C2)cc(-c2ccc(S(=O)(=O)NC(C)(C)C)c(C(F)(F)F)c2)n1CC1CCCCC1 [17/180]
- IC50 [1, 2]: 631 nM
- pIC50 (FF) (RORγ; [3]): 7.1
- pIC50 (REN) (RORγ; [4]): 7.2

SMILES: Cc1c(C(=O)NC2COC2)cc(-c2cc(C(C)(C)C)cc(C(C)(C)C)c2)n1S(=O)(=O)N1CC(C)CC(C)C1 (stereo not drawn) [7/3]
- IC50 [1, 2]: 251 nM
- pIC50 (FF) (RORγ; [3]): 6.6
- pIC50 (REN) (RORγ; [4]): 6.7

SMILES: Cc1c(C(=O)N[C@H]2C[C@H](C(=O)O)C2)cc(-c2cc(C3(C)CC3)nc(C(C)(C)C)n2)n1CC1CCCCC1 [17/311]
- IC50 [1, 2]: 794 nM
- pIC50 (FF) (RORγ; [3]): 7.0
- pIC50 (REN) (RORγ; [4]): 7.2

SMILES: Cc1c(C(=O)NCC(C)(C)C(=O)O)cc(-c2cc(C(C)(C)C)cc(C3(C)CC3)c2)n1CC1CCCCC1 [17/60]
- IC50 [1, 2]: 1580 nM
- pIC50 (FF) (RORγ; [3]): 7.6
- pIC50 (REN) (RORγ; [4]): 7.6

SMILES: Cc1cc(S(=O)(=O)NC(C)(C)C)c(C(F)(F)F)cc1-c1cc(C(=O)NC2CCOCC2)c(C)n1CC1CCCCC1 [17/233]
- IC50 [1]: 1580 nM
- pIC50 (FF) (RORγ): 5.8/6.5/6.5
- pIC50 (REN) (RORγ): 5.8/6.5/6.5

SMILES: Cc1c(C(=O)NC2CCOCC2)cc(-c2ccc(S(=O)(=O)NC(C)(C)C)c(C(F)(F)F)c2)n1CC1CC(C)C1 (stereo not drawn) [17/177]
- IC50 [1, 2]: 158 nM
- pIC50 (FF) (RORγ; [3]): 7.3
- pIC50 (REN) (RORγ; [4]): 7.4

SMILES: Cc1c(S(=O)(=O)NC(C)(C)C)ccc(-c2cc(C(=O)NCCC(C)(C)C(=O)O)c(C)n2CC2CCCCC2)c1OC(F)F [17/284]
- IC50 [1, 2]: 1260 nM
- pIC50 (FF) (RORγ; [3]): 7.3
- pIC50 (REN) (RORγ; [4]): 7.3

SMILES: Cc1c(C(=O)NC2CCOCC2)cc(-c2cc(C(=O)NCC(F)(F)F)cc(C3(C)CC3)c2)n1CC1CCCCC1 [17/352]
- IC50 [1, 2]: 631 nM
- pIC50 (FF) (RORγ; [3]): 7.5
- pIC50 (REN) (RORγ; [4]): 7.5
